{"source": "patent US5605892A", "about": "“Compositions of arginine amide with cyclodextrin of caffeine, and methods of use” (priority 1993, dated 1997)", "key": {"[1]": {"assay": "Solubility of argatroban in water (background statement)", "assay_type": "physicochemical", "details": "25° C., pH range 7.2-7.8", "procedure": "(§1) Taking one of the aforementioned arginine amides, (2R,4R)4-methyl-1-[N^2 -((RS)-3-methyl-1,2,3,4-tetrahydro-8-quinolinesulfonyl)-L-arginyl]-2-piperidinecarboxylic acid monohydrate (generally called argatroban) as an example, it is used at a concentration of 1 mg/ml or above as an eye drop or entoptic perfusate for the above-mentioned purpose."}, "[2]": {"system": "fibrin formation in anterior sac", "assay": "Inhibition of fibrin formation in anterior sac after argon laser irradiation of iris, slit lamp evaluation", "assay_type": "in vivo, colored house rabbits", "excerpt": "Reference Example--Argatroban concentration and inhibition of fibrin formation in anterior sac\nAnimal used: 18 colored house rabbits weighing 2 kg and showing no abnormality in the eyes by visual observation\nDrug used: test drug (a solution of argatroban at a concentration of 0.1 W/V % or 0.2 W/V % prepared according to the eye drop of Example 1)\n: control (physiological saline)\nTest: Fibrin was formed in anterior sac by irradiation at four sites in iris with argon laser (AC-3500, Nidek). The irradiation was conducted at a spot size of 100 μm, time 0.2 sec and output 1 watt. The fibrin in anterior sac was evaluated according to the evaluation criteria given below for the visual observation with time with a slit lamp after the irradiation up to 3 hours thereafter.\nThe test drug argatroban was administered 7 times by installation of 50 μl of the drug to one of the eyes every 10 minutes beginning from 30 minutes before the laser irradiation to 30 minutes after the irradiation, and physiological saline was administered to the other eye.\nSlit lamp observation: The presence of fibrin at the 4 sites irradiated with laser was graded (0 or 1). When the fibrin amount was great, the grade was doubled. The fibrin in pupil region was graded in five stages of from 0 to 4 points. The full mark was; irradiation site: 4 points×2+pupil region: 4 points=12 points."}, "[3]": {"assay": "Stability of aqueous solution of argatroban in a brown bottle (background statement)", "assay_type": "physicochemical", "procedure": "as §1"}, "[4]": {"assay": "Stability test: aqueous solutions in glass ampoules preserved in shade or under light exposure", "assay_type": "physicochemical", "details": "argatroban with caffeine", "excerpt": "Aqueous solutions (pH 7) containing 0.05 W/V % or 0.1 W/V % argatroban and having the formulations 1-6 shown in Table 2 below were filled in glass ampoules and preserved in shade or under light exposure of […]. Each solution was examined for pH, appearance, insoluble matter and residual content of argatroban."}, "[5]": {"assay": "Solubility test of argatroban in water with various compounds (shaken with excess argatroban, HPLC)", "assay_type": "physicochemical", "details": "for solubility thermodynamic at 12 h: phosphate buffer, pH 7, aqueous buffer, phosphate buffer pH 7.0, 25° C.", "procedure": "The solubility of argatroban in water was determined by the use of various compounds.\nAn excess amount of argatroban was added to a phosphate buffer (pH 7.0) containing a compound at a concentration of 1.0 W/V % and the mixture was shaken at 25° C. for 12 hours. The amount of the argatroban dissolved in this solution was measured by HPLC to determine the solubility."}, "[6]": {"assay": "Eye irritation examination", "assay_type": "in vivo, house rabbits", "excerpt": "Eye irritation caused by the respective, aforementioned solutions of α-cyclodextrin, β-cyclodextrin, γ-cyclodextrin and caffeine was examined using house rabbits."}, "fibrin formation": {"system": "fibrin formation", "details": "administration for a few weeks after the operation, cited from earlier work"}, "[7]": {"details": "solutions of Example 1, compound at 1.0 W/V %"}}}
{"smiles": "CC1CNc2c(cccc2S(=O)(=O)N[C@@H](CCCNC(=N)N)C(=O)N2CC[C@@H](C)C[C@@H]2C(=O)O)C1.O", "note": "(mixture of isomers) [argatroban, (2R,4R)4-methyl-1-[N^2-((RS)-3-methyl-1,2,3,4-tetrahydro-8-quinolinesulfonyl)-L-arginyl]-2-piperidinecarboxylic acid monohydrate]", "values": [{"measurement": "solubility", "setting": "[1]", "result": "~900", "unit": "µg/mL"}, {"measurement": "percent inhibition of fibrin formation", "setting": "[2]; 0.1 W/V % argatroban, 50 μl instilled 7 times every 10 minutes", "result": "about 50%"}, {"measurement": "inhibition of fibrin formation at every measurement point", "setting": "[2]; 0.1 W/V % argatroban, up to 3 hours after laser irradiation", "result": "significantly inhibited"}, {"measurement": "inhibition of fibrin formation", "setting": "[2]; 0.2 W/V % argatroban, 50 μl instilled 7 times every 10 minutes", "result": "completely inhibited"}, {"measurement": "preservation stability of aqueous solution", "setting": "[3]", "result": "can be preserved stably in a brown bottle"}, {"measurement": "stability against light", "setting": "[4]", "result": "improved by caffeine"}, {"measurement": "solubility thermodynamic at 12 h", "setting": "[5]; argatroban with caffeine 1.0 W/V %", "result": 2000, "unit": "µg/mL"}, {"measurement": "solubility thermodynamic at 12 h", "setting": "[5]; argatroban with α-cyclodextrin 1.0 W/V %", "result": 1340, "unit": "µg/mL"}, {"measurement": "solubility thermodynamic at 12 h", "setting": "[5]; argatroban with β-cyclodextrin 1.0 W/V %", "result": 2590, "unit": "µg/mL"}, {"measurement": "solubility thermodynamic at 12 h", "setting": "[5]; argatroban with γ-cyclodextrin 1.0 W/V %", "result": 1320, "unit": "µg/mL"}, {"measurement": "solubility thermodynamic at 12 h", "setting": "[5]; argatroban, no compound added", "result": 930, "unit": "µg/mL"}, {"measurement": "solubility of argatroban relative to that obtained when no compound was added", "setting": "[5]; with caffeine 1.0 W/V %", "result": "about twice"}, {"measurement": "improvement in solubility", "setting": "[5]; with α-, β-, γ-cyclodextrin and caffeine", "result": "superior improvement in solubility"}, {"measurement": "solubility of argatroban relative to that obtained when no compound was added", "setting": "[5]; with β-cyclodextrin 1.0 W/V %", "result": "about thrice"}]}
{"smiles": "Cn1c(=O)c2c(ncn2C)n(C)c1=O", "note": "[caffeine]", "values": [{"measurement": "Eye irritation", "setting": "[6]; [7]", "result": "no specific problems, thus showing no harmful effect on the eye tissue"}]}
{"smiles": "COc1ccc2c(c1)c(CC(=O)O)c(C)n2C(=O)c1ccc(Cl)cc1", "note": "[indomethacin]", "values": [{"measurement": "effect after entoptic operation", "setting": "fibrin formation", "result": "has not shown dependable effects"}, {"measurement": "adverse effects after entoptic operation", "setting": "fibrin formation; though not often", "result": "delay in healing of wounds or disorders in cornea"}]}
{"smiles": "OC[C@H]1O[C@@H]2O[C@H]3[C@H](O)[C@@H](O)[C@@H](O[C@H]4[C@H](O)[C@@H](O)[C@@H](O[C@H]5[C@H](O)[C@@H](O)[C@@H](O[C@H]6[C@H](O)[C@@H](O)[C@@H](O[C@H]7[C@H](O)[C@@H](O)[C@@H](O[C@H]1[C@H](O)[C@H]2O)O[C@@H]7CO)O[C@@H]6CO)O[C@@H]5CO)O[C@@H]4CO)O[C@@H]3CO", "note": "[α-cyclodextrin]", "values": [{"measurement": "Eye irritation", "setting": "[6]; rabbit, in vivo", "result": "no specific problems, thus showing no harmful effect on the eye tissue"}]}
{"smiles": "OC[C@H]1O[C@@H]2O[C@H]3[C@H](O)[C@@H](O)[C@@H](O[C@H]4[C@H](O)[C@@H](O)[C@@H](O[C@H]5[C@H](O)[C@@H](O)[C@@H](O[C@H]6[C@H](O)[C@@H](O)[C@@H](O[C@H]7[C@H](O)[C@@H](O)[C@@H](O[C@H]8[C@H](O)[C@@H](O)[C@@H](O[C@H]1[C@H](O)[C@H]2O)O[C@@H]8CO)O[C@@H]7CO)O[C@@H]6CO)O[C@@H]5CO)O[C@@H]4CO)O[C@@H]3CO", "note": "[β-cyclodextrin]", "values": [{"measurement": "Eye irritation", "setting": "[6]; rabbit, in vivo", "result": "no specific problems, thus showing no harmful effect on the eye tissue"}]}
{"smiles": "OC[C@H]1O[C@@H]2O[C@H]3[C@H](O)[C@@H](O)[C@@H](O[C@H]4[C@H](O)[C@@H](O)[C@@H](O[C@H]5[C@H](O)[C@@H](O)[C@@H](O[C@H]6[C@H](O)[C@@H](O)[C@@H](O[C@H]7[C@H](O)[C@@H](O)[C@@H](O[C@H]8[C@H](O)[C@@H](O)[C@@H](O[C@H]9[C@H](O)[C@@H](O)[C@@H](O[C@H]1[C@H](O)[C@H]2O)O[C@@H]9CO)O[C@@H]8CO)O[C@@H]7CO)O[C@@H]6CO)O[C@@H]5CO)O[C@@H]4CO)O[C@@H]3CO", "note": "[γ-cyclodextrin]", "values": [{"measurement": "Eye irritation", "setting": "[6]; [7]", "result": "no specific problems, thus showing no harmful effect on the eye tissue"}]}
